Measurements published in PMC9090415, “Discovery of small molecule inhibitors of Plasmodium falciparum apicoplast DNA polymerase” (Journal of Enzyme Inhibition and Medicinal Chemistry, 2022).

Target: P. falciparum apicoplast DNA polymerase (Pf-apPOL) (Plasmodium falciparum, UniProt Q8ILY1)
Assay: Fluorescence-based high-throughput DNA polymerase assay (molecular beacon), primary screen and dose-response
Format: biochemical
Description: The HT assay employs a molecular beacon, a stem-loop DNA template with a Cy3 dye and the Black Hole Quencher on the 3′ and 5′ ends of the DNA, respectively. Pf-apPOL concentration is based on a calculated absorptivity of ε280 = 56750 M^−1 cm^−1. Reactions were carried out at 25 °C, using Corning 3575 […] (well-volume, 20 µL). Assays testing for compound inhibition composed of reaction buffer (pH 7.9 in 50 mM potassium acetate, 20 mM Tris-acetate and 10 mM magnesium acetate), Pf-apPOL (20 nM), DNA substrate (20 nM), dNTPs (6 µM), and compound (10 µM in DMSO). The DNA and nucleotide substrates (dNTPs) were at concentrations of 20 nM and 6 µM, respectively, in the assay. Pf-apPOL was incubated in the reaction buffer with dNTPs and the compound of interest (10 µM, in the assay) at 25 °C for 10 min. The DNA substrate was then added and the reaction was allowed to proceed for 90 min at 25 °C.
Each assay plate contained 16 negative controls (no Pf-apPOL, DMSO present) and 16 positive controls (Pf-apPOL present, no DMSO). The fluorescence of each well was determined using a BioTek Synergy Neo fluorescence plate reader using excitation and emission wavelengths of 555 and 570 nm, respectively.
In the above, Min is the average of fluorescence emission of the negative controls (substrate only), Max the average fluorescence emission from the positive controls (enzyme + substrate), and Test the emission from the assays in the presence of compounds (enzyme + compound + substrates). […] […] The IC50 of each compound was determined using Equation (2): (2) IC50= Vmax/(1+ (I/IC50)^n)
In the above, n measures cooperativity, with n > 1 indicating synergistic binding of more than a single molecule of the compound.
To identify apPOL inhibitors we utilised our previously developed high-throughput DNA polymerase assay. The HT assay is based on a molecular beacon DNA template that forms a stem-loop with a Cy3 dye and the Black Hole Quencher on the 3′ and 5′ ends of the DNA, respectively. DNA polymerase activity extends an annealed primer through the stem region, displacing the fluorophore from the quencher, thereby increasing its fluorescence (Figure 1(A)). The assay accurately recapitulates the kinetic behaviour of apPOL, as measured through more conventional low-throughput gel-based assays. The Z′ factor for the assay described here was 0.9 across all plates (data not shown).
Figure 1. High-throughput screening. (A) The fluorescent-based DNA polymerase assay used to screen the compound libraries. The DNA template strand is a hairpin loop with a primer annealed to the loop. The 3’ end of the primer is 11 bases away from the 6 bp duplex. Strand displacement activity of the DNA polymerase separates the Cy3 dye from the Black hole quencher leading to an increase in fluorescent signal. (B) The high-throughput assay workflow. The DNA polymerase is incubated with […] compound for 10 min prior to addition of the hairpin substrate. The reaction is quenched at 3 different time points and the fluorescent signal is measured and % inhibition is determined using the provided equation.

[1] = primary screen value of the 186 hits; unit not given; 90 min, 10 µM

Sequence of P. falciparum apicoplast DNA polymerase (Pf-apPOL) (Q8ILY1 entry or part of it): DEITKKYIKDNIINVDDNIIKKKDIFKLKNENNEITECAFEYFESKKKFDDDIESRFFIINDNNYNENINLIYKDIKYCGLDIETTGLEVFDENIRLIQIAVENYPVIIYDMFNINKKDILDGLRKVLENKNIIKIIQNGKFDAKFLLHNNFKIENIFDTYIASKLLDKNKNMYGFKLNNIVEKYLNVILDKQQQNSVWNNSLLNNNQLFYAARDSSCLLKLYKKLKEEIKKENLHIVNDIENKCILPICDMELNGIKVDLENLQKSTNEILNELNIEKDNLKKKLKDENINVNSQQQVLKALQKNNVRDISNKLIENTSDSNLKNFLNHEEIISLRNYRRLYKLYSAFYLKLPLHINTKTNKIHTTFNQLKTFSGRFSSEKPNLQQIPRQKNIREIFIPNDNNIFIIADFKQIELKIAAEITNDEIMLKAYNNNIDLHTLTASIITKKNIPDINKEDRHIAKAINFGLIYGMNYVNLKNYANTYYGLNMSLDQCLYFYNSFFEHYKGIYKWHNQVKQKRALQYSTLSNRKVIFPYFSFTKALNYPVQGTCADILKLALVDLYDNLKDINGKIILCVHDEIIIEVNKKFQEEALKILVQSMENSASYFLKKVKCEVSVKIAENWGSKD

O=C(Nc1c2c(nn1-c1ccccc1)CSC2)c1ccco1 [KU0055213]
% inhibition Apo pol 10' (DRC-1; concentration 2.5; 10'): 28.0848% | % inhibition Apol 90' (DRC-1; concentration 2.5; 90'): 10.2281% | % inhibition apPOL 180' (DRC-1; concentration 2.5; 180'): -1.233% | % inhibition Apo pol 10' (DRC-1; concentration 5; 10'): 39.8975% | % inhibition Apol 90' (DRC-1; concentration 5; 90'): 17.5159% | % inhibition apPOL 180' (DRC-1; concentration 5; 180'): 1.991% | % inhibition Apo pol 10' (DRC-1; concentration 10; 10'): 66.5971% | % inhibition Apol 90' (DRC-1; concentration 10; 90'): 43.2893% | % inhibition apPOL 180' (DRC-1; concentration 10; 180'): 23.4061% | % inhibition Apo pol 10' (DRC-1; concentration 20; 10'): 82.6519% | % inhibition Apol 90' (DRC-1; concentration 20; 90'): 64.6698% | % inhibition apPOL 180' (DRC-1; concentration 20; 180'): 46.0885% | % inhibition Apo pol 10' (DRC-1; concentration 40; 10'): 90.9141% | % inhibition Apol 90' (DRC-1; concentration 40; 90'): 82.7699% | % inhibition apPOL 180' (DRC-1; concentration 40; 180'): 72.6518% | % inhibition Apo pol 10' (DRC-1; concentration 80 (unit not given); 10'): 92.3383% | % inhibition Apol 90' (DRC-1; concentration 80; 90'): 91.2919% | % inhibition apPOL 180' (DRC-1; concentration 80; 180'): 88.3514% | % inhibition Apo pol 5' (DRC-2; 5'; concentration 2.5): 24% | % inhibition Apo pol 5' (DRC-2; 5'; concentration 5): 37% | % inhibition Apo pol 5' (DRC-2; 5'; concentration 40): 59% | % inhibition Apo pol 5' (DRC-2; 5'; concentration 80): 59% | % inhibition Apol 40' (DRC-2; 40'; concentration 20): 59% | % inhibition Apol 40' (DRC-2; 40'; concentration 40): 70% | % inhibition ApPOL 90' (DRC-2; 90'; concentration 10): 37% | % inhibition ApPOL 90' (DRC-2; 90'; concentration 40): 70% | % inhibition apPOL 180' (DRC-2; 180'; concentration 10): 24% | % inhibition Apo pol 5' (DRC-2; concentration 2.5; 5'): 24% | % inhibition Apol 40' (DRC-2; concentration 2.5; 40'): 21% | % inhibition ApPOL 90' (DRC-2; concentration 2.5; 90'): 17% | % inhibition apPOL 180' (DRC-2; concentration 2.5; 180'): 9% | % inhibition Apo pol 5' (DRC-2; concentration 5; 5'): 37% | % inhibition Apol 40' (DRC-2; concentration 5; 40'): 36% | % inhibition ApPOL 90' (DRC-2; concentration 5; 90'): 32% | % inhibition apPOL 180' (DRC-2; concentration 5; 180'): 20% | % inhibition Apo pol 5' (DRC-2; concentration 10; 5'): 44% | % inhibition Apol 40' (DRC-2; concentration 10; 40'): 42% | % inhibition ApPOL 90' (DRC-2; concentration 10; 90'): 37% | % inhibition apPOL 180' (DRC-2; concentration 10; 180'): 24% | % inhibition Apo pol 5' (DRC-2; concentration 20; 5'): 52% | % inhibition Apol 40' (DRC-2; concentration 20; 40'): 59% | % inhibition ApPOL 90' (DRC-2; concentration 20; 90'): 57% | % inhibition apPOL 180' (DRC-2; concentration 20; 180'): 49% | % inhibition Apo pol 5' (DRC-2; concentration 40; 5'): 59% | % inhibition Apol 40' (DRC-2; concentration 40; 40'): 70% | % inhibition ApPOL 90' (DRC-2; concentration 40; 90'): 70% | % inhibition apPOL 180' (DRC-2; concentration 40; 180'): 65% | % inhibition Apo pol 5' (DRC-2; concentration 80; 5'): 59% | % inhibition Apol 40' (DRC-2; concentration 80; 40'): 75% | % inhibition ApPOL 90' (DRC-2; concentration 80; 90'): 77% | % inhibition apPOL 180' (DRC-2; concentration 80; 180'): 78% | DNA Pol [1]: 50 | DNA Pol (primary screen value; head prints only 'DNA Pol'; 90 min, 10 µM): 50

Cc1cc(C)cc(-n2nc3c(c2NC(=O)c2ccco2)CSC3)c1 [KU0055926]
% inhibition Apo pol 10' (DRC-1; 10'; concentration 2.5): 8.0326% | % inhibition Apo pol 10' (DRC-1; 10'; concentration 5): 29.0516% | % inhibition Apo pol 10' (DRC-1; 10'; concentration 10): 59.7607% | % inhibition Apo pol 10' (DRC-1; 10'; concentration 20): 82.6519% | % inhibition Apo pol 10' (DRC-1; 10'; concentration 40): 88.4046% | % inhibition Apo pol 10' (DRC-1; 10'; concentration 80): 87.3935% | % inhibition Apol 90' (DRC-1; 90'; concentration 2.5): -0.9298% | % inhibition Apol 90' (DRC-1; 90'; concentration 5): 15.258% | % inhibition Apol 90' (DRC-1; 90'; concentration 10): 43.5557% | % inhibition Apol 90' (DRC-1; 90'; concentration 20): 72.7845% | % inhibition Apol 90' (DRC-1; 90'; concentration 40): 86.0941% | % inhibition Apol 90' (DRC-1; 90'; concentration 80): 88.1488% | % inhibition apPOL 180' (DRC-1; 180'; concentration 2.5): -5.803% | % inhibition apPOL 180' (DRC-1; 180'; concentration 5): 4.111% | % inhibition apPOL 180' (DRC-1; 180'; concentration 10): 27.2882% | % inhibition apPOL 180' (DRC-1; 180'; concentration 20): 60.1388% | % inhibition apPOL 180' (DRC-1; 180'; concentration 40): 79.5226% | % inhibition apPOL 180' (DRC-1; 180'; concentration 80): 84.9587% | % inhibition Apo pol 5' (DRC-2; 5'; concentration 2.5): 11% | % inhibition Apo pol 5' (DRC-2; 5'; concentration 5): 21% | % inhibition Apo pol 5' (DRC-2; 5'; concentration 10): 38% | % inhibition Apo pol 5' (DRC-2; 5'; concentration 20): 50% | % inhibition Apo pol 5' (DRC-2; 5'; concentration 40): 54% | % inhibition Apo pol 5' (DRC-2; 5'; concentration 80): 54% | % inhibition Apol 40' (DRC-2; 40'; concentration 2.5): 12% | % inhibition Apol 40' (DRC-2; 40'; concentration 5): 24% | % inhibition Apol 40' (DRC-2; 40'; concentration 10): 41% | % inhibition Apol 40' (DRC-2; 40'; concentration 20): 60% | % inhibition Apol 40' (DRC-2; 40'; concentration 40): 69% | % inhibition Apol 40' (DRC-2; 40'; concentration 80): 71% | % inhibition ApPOL 90' (DRC-2; 90'; concentration 2.5): 10% | % inhibition ApPOL 90' (DRC-2; 90'; concentration 5): 21% | % inhibition ApPOL 90' (DRC-2; 90'; concentration 10): 38% | % inhibition ApPOL 90' (DRC-2; 90'; concentration 20): 60% | % inhibition ApPOL 90' (DRC-2; 90'; concentration 40): 71% | % inhibition ApPOL 90' (DRC-2; 90'; concentration 80): 74% | % inhibition apPOL 180' (DRC-2; 180'; concentration 2.5): 6.36% | % inhibition apPOL 180' (DRC-2; 180'; concentration 5): 13% | % inhibition apPOL 180' (DRC-2; 180'; concentration 10): 27% | % inhibition apPOL 180' (DRC-2; 180'; concentration 20): 53% | % inhibition apPOL 180' (DRC-2; 180'; concentration 40): 68% | % inhibition apPOL 180' (DRC-2; 180'; concentration 80): 74% | % inhibition Apo pol 5' (conc. 5; 5'; DRC-2): 21% | % inhibition ApPOL 90' (conc. 5; 90'; DRC-2): 21% | % inhibition Apo pol 5' (conc. 10; 5'; DRC-2): 38% | % inhibition ApPOL 90' (conc. 10; 90'; DRC-2): 38% | % inhibition Apol 40' (conc. 20; 40'; DRC-2): 60% | % inhibition ApPOL 90' (conc. 20; 90'; DRC-2): 60% | % inhibition Apo pol 5' (conc. 40; 5'; DRC-2): 54% | % inhibition ApPOL 90' (conc. 40; 90'; DRC-2): 71% | % inhibition Apo pol 5' (conc. 80; 5'; DRC-2): 54% | % inhibition Apol 40' (conc. 80; 40'; DRC-2): 71% | % inhibition ApPOL 90' (conc. 80; 90'; DRC-2): 74% | % inhibition apPOL 180' (conc. 80; 180'; DRC-2): 74% | DNA Pol (primary screen value by plate and well; 90 min, 10 µM): 58 | DNA Pol [1]: 58
